Results taken from ChEMBL document CHEMBL4130363, “Synthesis and pharmacological evaluation of benzamide derivatives as potent and selective sigma-1 protein ligands” (Eur J Med Chem, 2017).
Values after ≈ are worked out from the molar mass of the structure shown.

Tests used:
[1] = molecular target: T1, Adenosine receptor A1 (Homo sapiens) (UniProt P30542); experiment: Antagonist activity at recombinant human adenosine A1 receptor assessed as inhibition of agonist-induced cAMP induction at 10 uM by HTRF assay; format: functional
T1 sequence (whole entry): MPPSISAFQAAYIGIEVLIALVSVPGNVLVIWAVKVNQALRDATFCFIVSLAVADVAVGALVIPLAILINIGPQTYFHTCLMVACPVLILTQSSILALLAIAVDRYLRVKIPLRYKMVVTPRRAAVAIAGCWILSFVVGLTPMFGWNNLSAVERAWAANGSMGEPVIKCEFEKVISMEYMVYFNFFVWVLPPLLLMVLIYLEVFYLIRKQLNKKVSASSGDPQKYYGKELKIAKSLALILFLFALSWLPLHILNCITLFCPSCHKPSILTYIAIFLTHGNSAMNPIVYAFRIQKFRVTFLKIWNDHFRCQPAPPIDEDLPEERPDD

[2] = molecular target: Sigma intracellular receptor 2 (Homo sapiens, UniProt Q5BJF2); experiment: Displacement of [3H]-DTG from S2R in human Jurkat cell membranes after 1 hr in presence of (+)-pentazocine by liquid scintillation counting
[3] = molecular target: Sigma non-opioid intracellular receptor 1 (Homo sapiens, UniProt Q99720); experiment: Displacement of [3H](+)-pentazocine from S1R in human Jurkat cell membranes after 2 hrs by liquid scintillation counting
[4] = Aqueous solubility of the compound in PBS buffer at pH 7.8; format: physicochemical
[5] = Metabolic stability in human liver microsomes by LC/MS analysis; format: ADME, microsome
[6] = n-Octanol-PBS buffer distribution coefficient, log D of the compound at pH 7.4; format: physicochemical

Sequence of Sigma non-opioid intracellular receptor 1 (Q99720 whole entry): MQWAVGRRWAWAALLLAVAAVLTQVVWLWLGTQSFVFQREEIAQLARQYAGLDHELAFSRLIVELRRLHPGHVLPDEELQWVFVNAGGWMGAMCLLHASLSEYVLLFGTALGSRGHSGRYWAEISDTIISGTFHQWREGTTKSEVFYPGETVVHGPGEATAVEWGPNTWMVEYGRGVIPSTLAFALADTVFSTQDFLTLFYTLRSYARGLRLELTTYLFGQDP
Sequence of Sigma intracellular receptor 2 (Q5BJF2 whole entry): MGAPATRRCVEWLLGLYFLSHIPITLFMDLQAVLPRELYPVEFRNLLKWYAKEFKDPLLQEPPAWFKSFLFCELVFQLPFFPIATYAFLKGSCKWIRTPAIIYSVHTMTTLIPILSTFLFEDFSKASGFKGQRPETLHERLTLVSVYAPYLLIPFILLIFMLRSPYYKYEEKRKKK

## COc1cccc(C(=O)NCCCN(C)Cc2ccccc2)c1
[1]
  inhibition: -2%

## CN(CCNC(=O)c1ccc(Cl)cc1)Cc1ccccc1
[2]
  Ki: 850 nM
[3]
  Ki: 3.6 nM

## CCCc1ccc(C(=O)NCCCN(C)Cc2ccccc2)cc1
[1]
  inhibition: -9%

## CN(CCCNC(=O)c1ccc(Cl)cc1)CCc1ccccc1
[1]
  inhibition: -10%

## CN(CCNC(=O)c1ccc(C#N)cc1)Cc1ccccc1
[1]
  inhibition: 2%

## CN(CCCNC(=O)c1ccc(Cl)cc1)Cc1ccccc1
[4]
  solubility: 173 µM (≈ 54.8 µg/mL)
[5]
  Stability: 77%
[6]
  logD: 2.51
